According to article PMC9995496, “A screen for MeCP2-TBL1 interaction inhibitors using a luminescence-based assay” (Scientific Reports, 2023):
Where a name gives a salt, the structure may show the parent alone. Read-outs that look alike come from different tables or passages of the source.

System: PRKACA-PRKAR2A interaction (SmBiT-PRKACA / LgBiT-PRKAR2A), protein kinase A
Parameters: NanoLuc complementation counter-screen in cell extract, PRKACA with PRKAR2A, loss of luminescence, detects NanoLuc interference
Conditions: 0.5 h, 20 µM, inhibitor
[1] = counter-screen for NanoLuc interference

Structure (SMILES) | Inh (PKA) [1] | also measured
CO/N=C(\C(=O)N[C@@H]1C(=O)N2C(C(=O)O)=C(COC(C)=O)CS[C@H]12)c1csc(N)n1 [UM0133637:02, Cefotaxime (sodium salt)] | 1.378% | –
CC[C@@]1(O)C(=O)OCc2c1cc1n(c2=O)Cc2cc3ccccc3nc2-1 [UM0133648:02, Camptothecin] | 1.997% | –
COCCOC(=O)C1=C(C)NC(C)=C(C(=O)OC/C=C/c2ccccc2)C1c1cccc([N+](=O)[O-])c1 (stereo not drawn) [UM0133650:02, Cilnidipine] | 81.64% | –
CCCCCCCCCCCC1=C(O)C(=O)C=C(O)C1=O [UM0133662:02, Embelin] | 15.52% | –
CC(C)=CC[C@@H](O)C1=CC(=O)c2c(O)ccc(O)c2C1=O [UM0133665:02, Shikonin] | 46.09% | –
Nc1ccn([C@H]2CC[C@@H](CO)O2)c(=O)n1 [UM0133684:02, Zalcitabine] | -0.04839% | –
CC(C)(C)NC(=O)[C@H]1CC[C@H]2[C@@H]3CC[C@H]4NC(=O)C=C[C@]4(C)[C@H]3CC[C@]12C [UM0133719:02, Finasteride] | 1.602% | –
COCCCC/C(=N\OCCN)c1ccc(C(F)(F)F)cc1 [UM0133722:02, Fluvoxamine maleate] | 2.345% | –
O=c1[nH]cc(F)c(=O)[nH]1 [UM0133724:03, Fluorouracil (Adrucil)] | 1.181% | –
O=C(/C=C/c1ccc(O)c(O)c1)OCCc1ccccc1 [UM0133732:02, Caffeic Acid Phenethyl Ester] | 43.72% | –
C[C@H]1CCC/C=C/[C@@H]2C[C@H](O)C[C@H]2[C@H](O)/C=C/C(=O)O1 [UM0133745:02, Brefeldin A] | 1.414% | –
O=c1c(-c2ccc(O)cc2)coc2cc(O)cc(O)c12 [UM0133748:02, Genistein] | 59.26% | –
CC1=C(/C=C/C(C)=C/C=C/C(C)=C\C(=O)O)C(C)(C)CCC1 [UM0133752:04, Isotretinoin] | 16.35% | –
CC1(C)CCC2=C(O1)c1ccccc1C(=O)C2=O [UM0133760:02, Beta-Lapachone] | 9.4% | –
CO[C@@]12[C@H](COC(N)=O)C3=C(C(=O)C(C)=C(N)C3=O)N1C[C@@H]1N[C@@H]12 [UM0133761:02, Mitomycin C] | 0.5965% | –
COc1cccc2c1C(=O)c1c(O)c3c(c(O)c1C2=O)C[C@@](O)(C(=O)CO)C[C@@H]3O[C@H]1C[C@H](N)[C@H](O)[C@H](C)O1 [UM0133765:03, Doxorubicin] | 45.98% | –
CC1=C2C[C@H]3[C@@H](CC=C4C[C@@H](O)CC[C@@]43C)[C@@H]2CC[C@]12O[C@@H]1C[C@H](C)CN[C@H]1[C@H]2C [UM0133766:02, Cyclopamine] | 2.445% | –
CN1CCC(=C2c3ccccc3CC(=O)c3sccc32)CC1 [UM0133795:02, Ketotifen Fumarate] | 5.692% | –
C/C(O)=C(\C#N)C(=O)Nc1cc(Br)ccc1Br [UM0133802:02, LFM-A13] | 54.46% | –
Cc1ccc(Cl)c(Nc2ccccc2C(=O)O)c1Cl [UM0133818:02, Meclofenamate Sodium] | 21.07% | –
Cc1[nH]c(=O)c(C#N)cc1-c1ccncc1 [UM0133819:02, Milrinone] | -0.01503% | –
O=c1cc(-c2ccc(O)cc2)oc2cc(O)cc(O)c12 [UM0133861:02, Apigenin] | 24.67% | –
COc1ccc(-c2coc3cc(O)cc(O)c3c2=O)cc1 [UM0133867:02, Biochanin A] | 69.13% | –
O=C(/C=C/c1ccc(O)c(O)c1)c1ccc(O)cc1O [UM0133869:02, Butein] | 52.51% | –

Structure (SMILES) | Inh (PKA) [1] | also measured
O=c1cc(-c2ccc(O)c(O)c2)oc2cc(O)cc(O)c12 [UM0133934:02, Luteolin] | 25.55% | –
O=c1c(O)c(-c2cc(O)c(O)c(O)c2)oc2cc(O)cc(O)c12 [UM0133944:02, Myricetin] | 47.98% | –
CC1=CC(=O)c2c(O)cccc2C1=O [UM0133960:02, Plumbagin] | 19.95% | –
C[C@H]1COC2=C1C(=O)C(=O)c1c2ccc2c1CCCC2(C)C [UM0134017:02, Cryptotanshinone] | 20.28% | –
COc1c2occc2cc2ccc(=O)oc12 [UM0134068:02, 8-Methoxypsoralen] | 2.167% | –
CN1C(C(=O)Nc2ccccn2)=C(O)c2ccccc2S1(=O)=O [UM0134086:02, Piroxicam] | 4.329% | –
Cc1ccc(C(=O)Cn2c3c(sc2=N)CCCC3)cc1 [UM0134099:02, Pifithrin-?] | 9.08% | –
Cc1nc2n(c(=O)c1CCN1CCC(c3noc4cc(F)ccc34)CC1)CCCC2 [UM0134126:02, Risperidone] | 4.965% | –
Clc1cccc(Cl)c1NC1=NCCN1 [UM0134172:02, Clonidine HCl] | 1.329% | –
c1ccc(CN(CC2=NCCN2)c2ccccc2)cc1 [UM0134174:02, Antazoline HCl] | 0.9494% | –
O=C1CN(/N=C/c2ccc(-c3ccc([N+](=O)[O-])cc3)o2)C(=O)N1 [UM0134180:02, Dantrolene, sodium salt] | 25.72% | –
O=C(NCCN1CCOCC1)c1ccc(Cl)cc1 [UM0134186:02, Moclobemide (Ro 111163)] | 0.401% | –
C[C@H]1O[C@@H](O[C@H]2[C@@H](O)C[C@H](O[C@H]3[C@@H](O)C[C@H](O[C@H]4CC[C@@]5(C)[C@H](CC[C@@H]6[C@@H]5C[C@@H](O)[C@]5(C)[C@@H](C7=CC(=O)OC7)CC[C@]65O)C4)O[C@@H]3C)O[C@@H]2C)C[C@H](O)[C@@H]1O [UM0134205:02, Digoxin] | -2.961% | –
C[C@@H]1O[C@@H](O[C@H]2C[C@@H](O)[C@]3(CO)[C@H]4[C@H](O)C[C@]5(C)[C@@H](C6=CC(=O)OC6)CC[C@]5(O)[C@@H]4CC[C@]3(O)C2)[C@H](O)[C@H](O)[C@H]1O [UM0134215:02, Ouabain] | 0.8032% | –
CCC1=C(C)CN(C(=O)NCCc2ccc(S(=O)(=O)NC(=O)N[C@H]3CC[C@H](C)CC3)cc2)C1=O [UM0134252:02, Glimepiride] | 4.382% | –
CC1(C)[C@@H](OC(=O)CCC(=O)O)CC[C@]2(C)[C@H]3C(=O)C=C4[C@@H]5C[C@@](C)(C(=O)O)CC[C@]5(C)CC[C@@]4(C)[C@]3(C)CC[C@@H]12 [UM0134288:02, Carbenoxolone disodium] | 9.677% | –
C#C[C@]1(OC(C)=O)CC[C@H]2[C@@H]3CCC4=C[C@@H](OC(C)=O)CC[C@@H]4[C@H]3CC[C@@]21C [UM0134301:02, Ethynodiol diacetate] | 16.1% | –
O=C(O)/C=C/c1ccc(Cn2ccnc2)cc1 [UM0134313:02, Ozagrel HCl] | – | Inh (PKA) (counter-screen for NanoLuc interference, Inh (PKA)): -0.66%
CC1=C(CC(=O)O)c2cc(F)ccc2/C1=C\c1ccc([S+](C)[O-])cc1 (stereo not drawn) [UM0134349:02, Sulindac] | 3.185% | –
CN(C)c1ccc(/C=C2\C(=O)Nc3ccccc32)cc1 [UM0134350:02, SU 4312] | 71.43% | –
COC[C@H]1OC(=O)c2coc3c2[C@@]1(C)C1=C(C3=O)[C@@H]2CCC(=O)[C@@]2(C)C[C@H]1OC(C)=O [UM0134355:02, Wortmannin] | 31.91% | –
COc1ccc(/C=C/C(=O)Nc2ccccc2C(=O)O)cc1OC [UM0134356:02, Tranilast] | 18.34% | –
COc1ccccc1N1CCN(CCN(C(=O)C2CCCCC2)c2ccccn2)CC1 [UM0134420:02, WAY-100635 maleate salt] | 1.248% | –
Cc1cccc(C)c1NC1=NCCCS1 [UM0134421:02, Xylazine HCl] | – | Inh (PKA): 1.103%
